Measurements published in US20250186416A1, “SMOKING CESSATION COMPOUNDS HAVING REDUCED NITROSAMINES AND ASSOCIATED METHODS” (Achieve Life Sciences, Inc., priority 2023, published 2025).
Like-named read-outs stand apart in the source and are kept apart here.

Legend:
[1] = cited from earlier work

O=c1cccc2n1C[C@@H]1CNC[C@H]2C1 [drug substance (API), cytisine]
NNC equivalent in the standard tablet formulation (equivalent of 152 ppb in API): approximately 0.46 ng/tablet | highest level of NNC observed in representative batches of drug substance (API) (storage about 10 months to about 8 years after manufacture): 152 ppb

O=C1O[C@H]([C@@H](O)CO)C(O)=C1O [ascorbic acid]
reported pH of ascorbic acid in water ([1]; 5 mg/ml): 3 | reported pH of ascorbic acid in water ([1]; 50 mg/ml): 2
